The inhibition is the drop in the measured response relative to a control, in per cent. The term Ki denotes a measure of affinity in units of concentration, obtained from inhibition or displacement.

Where two headings read alike, the source gives them in different places. Where only a bound is given, the exact number is not on record here.

Assay [1] concerns the target rP2Y6 (Rattus norvegicus, UniProt Q63371). Nature of the assay: Inhibition of UDP binding at rP2Y6. The settings on record: read-out: rP2Y6 % inhibition of UDP binding at 100 μM, n = 3, mean ± SEM.
Assay [2] concerns the target T1, human NTPDase1 (Homo sapiens, UniProt P49961).
T1 sequence (P49961 1-510): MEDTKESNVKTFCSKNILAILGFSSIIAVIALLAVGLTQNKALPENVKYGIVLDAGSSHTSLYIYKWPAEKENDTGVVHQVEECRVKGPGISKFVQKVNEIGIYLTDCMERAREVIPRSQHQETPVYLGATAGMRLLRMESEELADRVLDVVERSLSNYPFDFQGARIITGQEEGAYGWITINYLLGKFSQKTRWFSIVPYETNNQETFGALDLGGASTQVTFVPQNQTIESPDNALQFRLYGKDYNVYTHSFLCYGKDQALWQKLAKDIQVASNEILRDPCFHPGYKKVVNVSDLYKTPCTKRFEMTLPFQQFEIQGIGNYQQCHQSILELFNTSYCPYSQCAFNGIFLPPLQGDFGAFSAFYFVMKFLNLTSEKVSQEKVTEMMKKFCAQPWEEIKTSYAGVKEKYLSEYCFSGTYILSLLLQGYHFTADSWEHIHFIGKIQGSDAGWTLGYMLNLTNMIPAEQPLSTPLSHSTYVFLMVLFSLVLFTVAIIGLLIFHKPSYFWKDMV
Put plainly: NTPDase inhibition assay by capillary electrophoresis (CE), NTPDase1. Format: biochemical. Conditions: ATP 320 μM; for Ki: CE method, Km 17 μM, read-out: NTPDase1 Ki [μM] ± SEM; for inhibition at 1000 µM: 1 mM compound. The protocol:
(§1) The applied enzyme inhibition assay has been described (Iqbal J, Vollmayer P, Braun N, Zimmermann H, Müller C E. A capillary electrophoresis method for the characterization of ecto-nucleoside triphosphate diphosphohydrolases (NTPDases) and the analysis of inhibitors by in-capillary enzymatic microreaction. Purinergic Signalling 2005, 1, 349-358).
(§2) A. CE instrumentation: All experiments were carried out using a P/ACE MDQ capillary electrophoresis system (Beckman Instruments, Fullerton, Calif., USA) equipped with a UV detection system coupled with a diode-array detector (DAD). Data collection and peak area analysis were performed by the P/ACE MDQ software 32 KARAT obtained from Beckman Coulter. The capillary temperature was kept constant at 25° C. The temperature of the sample storing unit was also adjusted to 25° C. The electrophoretic separations were carried out using an eCAP polyacrylamide-coated fused-silica capillary [(30 cm (20 cm effective length)×50 μm internal diameter (I.D.)×360 μm outside diameter (O.D.), obtained from CS-Chromatographie (Langerwehe, Germany)]. The separation was performed using an applied current of −60 μA and a data acquisition rate of 8 Hz. Analytes were detected using direct UV absorbance at 210 nm. The capillary was conditioned by rinsing with water for 2 min and subsequently with buffer (phosphate 50 mM, pH 6.5) for 1 min. Sample injections were made at the cathodic side of the capillary.
(§3) B. NTPDase inhibition assay by capillary electrophoresis: Enzyme inhibition assays were carried out at 37° C. in a final volume of 100 μl. The reaction mixture contained 320 μM of ATP (substrate) in reaction buffer. The reaction buffer contained 140 mM NaCl, 5 mM KCl, 1 mM MgCl2, 2 mM CaCl2, and 10 mM Hepes, pH 7.4.
(§4) Different concentrations of inhibitors dissolved in DMSO or water (10 μl) were added and the reaction was initiated by the addition of 10 μl of the appropriately diluted recombinant or native human or rat NTPDase enzyme. […] The mixture (final volume 100 μl) was incubated for 15 min and terminated by heating at 99° C. for 4 min. Aliquots of the reaction mixture (50 μl) were then transferred to mini-CE vials and injected into the CE instrument under the conditions described above. 20 μM of UMP was used as internal standard. Inhibition of NTPDase was tested over a range of 6 to 8 concentrations of test compound spanning 3 orders of magnitude to determine K1 values. Each analysis was repeated two times (in triplicates) in two separate experiments. The Cheng-Prusoff equation was used to calculate the K1 values from the IC50 values, determined by the non-linear curve fitting program PRISM® 3.0 (GraphPad, San Diego, Calif., USA). In table 1K, values of selected compounds as inhibitors of human NTPDases are given.

Assay [3] has as its target hP2Y12 (Homo sapiens, UniProt Q9H244). Put plainly: Inhibition of [3H]PSB-0413 binding at hP2Y12. The settings on record: mean ± SEM, read-out: hP2Y12 % Inhibition of [^3H]PSB-0413 Binding at 10 μM, n = 3. As to the method: In table 2 inhibition data of selected examples at human P2Y receptor subtypes were collected. It can be seen that no compound was identified that inhibited P2Y receptors at high concentrations of 100 μM and 10 μM, respectively.

Assay [4] addresses T2, human NTPDase3 (Homo sapiens, UniProt O75355).
T2 sequence (O75355 1-529): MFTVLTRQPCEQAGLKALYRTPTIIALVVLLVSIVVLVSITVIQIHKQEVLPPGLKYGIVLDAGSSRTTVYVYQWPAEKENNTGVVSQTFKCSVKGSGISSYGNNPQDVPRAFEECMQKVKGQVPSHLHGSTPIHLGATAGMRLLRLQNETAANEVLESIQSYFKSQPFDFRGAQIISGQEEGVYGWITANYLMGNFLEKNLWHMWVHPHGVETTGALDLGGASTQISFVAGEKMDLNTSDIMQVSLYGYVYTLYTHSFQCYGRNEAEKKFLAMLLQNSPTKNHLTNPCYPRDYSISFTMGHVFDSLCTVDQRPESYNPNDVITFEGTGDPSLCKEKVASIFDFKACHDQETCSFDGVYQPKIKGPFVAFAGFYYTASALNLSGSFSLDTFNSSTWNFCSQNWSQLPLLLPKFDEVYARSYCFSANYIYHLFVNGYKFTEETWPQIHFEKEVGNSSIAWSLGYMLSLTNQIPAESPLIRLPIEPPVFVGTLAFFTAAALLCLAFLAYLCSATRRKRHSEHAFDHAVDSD
Put plainly: NTPDase inhibition assay by capillary electrophoresis (CE), NTPDase3. Type of assay: biochemical. Conditions: ATP 320 μM; for inhibition at 1000 µM: 1 mM compound; for Ki: CE method, Km 75 μM, read-out: NTPDase3 Ki [μM] ± SEM. As to the method: as §1, §2, §3, §4

Assay [5] concerns the target T3, human NTPDase8 (Homo sapiens, UniProt Q5MY95).
T3 sequence (Q5MY95 1-495): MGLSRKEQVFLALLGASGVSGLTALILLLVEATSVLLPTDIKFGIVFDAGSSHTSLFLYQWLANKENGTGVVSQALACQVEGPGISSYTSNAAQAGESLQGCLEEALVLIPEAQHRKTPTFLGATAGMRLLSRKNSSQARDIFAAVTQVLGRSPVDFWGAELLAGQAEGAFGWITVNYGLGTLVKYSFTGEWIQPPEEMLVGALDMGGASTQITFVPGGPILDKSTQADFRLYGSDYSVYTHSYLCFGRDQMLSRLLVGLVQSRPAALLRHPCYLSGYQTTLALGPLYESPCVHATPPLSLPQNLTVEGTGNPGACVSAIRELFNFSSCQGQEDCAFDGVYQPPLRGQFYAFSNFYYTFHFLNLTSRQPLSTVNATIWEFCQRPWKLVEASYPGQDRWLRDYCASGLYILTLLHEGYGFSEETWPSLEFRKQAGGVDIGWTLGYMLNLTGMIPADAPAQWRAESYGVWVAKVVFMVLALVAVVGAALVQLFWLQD
Put plainly: NTPDase inhibition assay by capillary electrophoresis (CE), NTPDase8. Format: biochemical. The settings on record: for Ki: read-out: NTPDase8 Ki [μM] ± SEM; for inhibition at 1000 µM: 1 mM compound. The protocol:
as §1, §2, §3, §4

The target of assay [6] is T4, human NTPDase2 (Homo sapiens, UniProt Q9Y5L3).
T4 sequence (Q9Y5L3 1-495): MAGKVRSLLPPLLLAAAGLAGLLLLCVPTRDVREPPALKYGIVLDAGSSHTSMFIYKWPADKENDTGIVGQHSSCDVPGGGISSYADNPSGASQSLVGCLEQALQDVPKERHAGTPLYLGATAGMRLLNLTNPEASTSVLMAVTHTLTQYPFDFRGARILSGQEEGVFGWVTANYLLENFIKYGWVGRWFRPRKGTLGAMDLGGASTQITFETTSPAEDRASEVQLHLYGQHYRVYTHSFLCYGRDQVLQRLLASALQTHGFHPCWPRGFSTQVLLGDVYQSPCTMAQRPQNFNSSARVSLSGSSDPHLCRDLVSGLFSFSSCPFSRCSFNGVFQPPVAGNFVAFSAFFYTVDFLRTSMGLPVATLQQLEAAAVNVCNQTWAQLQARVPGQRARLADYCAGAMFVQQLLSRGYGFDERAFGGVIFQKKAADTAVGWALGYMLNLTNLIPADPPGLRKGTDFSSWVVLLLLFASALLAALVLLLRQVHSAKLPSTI
Nature of the assay: NTPDase inhibition assay by capillary electrophoresis (CE), NTPDase2. The settings on record: human NTPDase2; CE method; ATP 320 μM; Km 70 μM; read-out: NTPDase2 Ki [μM] ± SEM. Format: biochemical.

Sequence of rP2Y6 (Q63371 whole entry): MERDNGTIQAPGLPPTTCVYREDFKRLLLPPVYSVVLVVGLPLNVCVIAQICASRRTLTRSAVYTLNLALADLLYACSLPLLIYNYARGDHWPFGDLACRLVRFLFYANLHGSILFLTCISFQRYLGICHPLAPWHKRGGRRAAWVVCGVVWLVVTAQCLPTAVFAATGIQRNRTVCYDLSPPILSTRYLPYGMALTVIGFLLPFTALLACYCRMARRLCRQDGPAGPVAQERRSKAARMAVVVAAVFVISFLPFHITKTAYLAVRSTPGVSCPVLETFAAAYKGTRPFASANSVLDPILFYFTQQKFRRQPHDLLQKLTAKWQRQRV
Sequence of hP2Y12 (Q9H244 whole entry): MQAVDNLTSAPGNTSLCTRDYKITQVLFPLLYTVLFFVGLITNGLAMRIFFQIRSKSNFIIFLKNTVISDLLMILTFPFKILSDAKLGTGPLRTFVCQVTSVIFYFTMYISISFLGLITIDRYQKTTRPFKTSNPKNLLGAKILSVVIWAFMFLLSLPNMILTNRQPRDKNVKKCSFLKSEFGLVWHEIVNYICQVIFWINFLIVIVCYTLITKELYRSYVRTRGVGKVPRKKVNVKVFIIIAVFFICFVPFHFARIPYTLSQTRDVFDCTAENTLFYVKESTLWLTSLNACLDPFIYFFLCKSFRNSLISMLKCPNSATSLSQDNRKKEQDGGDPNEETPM

As for `CCOP(=O)(Cc1ccc(NC(=O)CCCNC(=O)[C@H]2O[C@@H](n3ccc(=O)[nH]c3=O)C(O)C2O)cc1)OCC` (stereo in doubt) [Compound 4, 4-[4-((2S,3R,4S,5R)-5-(2,4-Dioxo-3,4-dihydropyrimidin-1(2H)-yl)-3,4-dihydroxy-tetrahydrofurane-2-carboxamido)butaneamido]benzylphosphonic acid diethylester], the inhibition at 100 µM in assay [1] is -8 ± 11%. In addition, the Ki was 182 ± 24.3 µM in assay [2]; > 200 µM in assay [4]; 242 ± 39.3 µM in assay [5] (human NTPDase8, CE method, ATP 320 μM, Km 46 μM); 210 ± 25.3 µM in assay [6]. In addition, the inhibition at 10 µM in assay [3] is 6 ± 4%. Also, in assay [4], the inhibition at 1000 µM was found to be 48%.
With `CCOP(=O)(CNC(=O)CNC(=O)[C@H]1O[C@@H](n2ccc(=O)[nH]c2=O)C(O)C1O)OCC` (stereo in doubt) [Compound 5, 2-[(2S,3R,4S,5R)-5-(2,4-Dioxo-3,4-dihydropyrimidin-1(2H)-yl)-3,4-dihydroxy-tetrahydrofurane-2-carboxamido]ethaneamidomethylphosphonic acid diethylester], in assay [1], the inhibition at 100 µM turned out to be 17 ± 16%. In addition, the Ki is 786 ± 33 µM in assay [2], > 200 µM in assay [4], > 100 µM in assay [5] and 71.7 ± 13.5 µM in assay [6]. Further, the inhibition at 10 µM in assay [3] is 31 ± 1%. Further, the inhibition at 1000 µM in assay [4] came out at 0%; in assay [5] (human NTPDase8, ATP 320 μM), 0%.
With `CCOP(=O)(CNC(=O)CCCNC(=O)[C@H]1O[C@@H](n2ccc(=O)[nH]c2=O)C(O)C1O)OCC` (stereo in doubt) [Compound 7, 4-[(2S,3R,4S,5R)-5-(2,4-Dioxo-3,4-dihydropyrimidin-1(2H)-yl)-3,4-dihydroxy-tetrahydrofurane-2-carboxamido]butaneamidomethylphosphonic acid diethylester], the inhibition at 100 µM in assay [1] is -3 ± 11%. Besides, the inhibition at 1000 µM in assay [2] came out at 45%; in assay [4], 0%; in assay [5] (human NTPDase8, ATP 320 μM), 0%. Moreover, the Ki in assay [2] is > 50 µM; in assay [4], > 200 µM; in assay [5], > 100 µM; in assay [6], 29.2 ± 2.7 µM. The inhibition at 10 µM in assay [3] is 2 ± 8%.
As for `CCOP(=O)(CCNC(=O)CNC(=O)[C@H]1O[C@@H](n2ccc(=O)[nH]c2=O)C(O)C1O)OCC` (stereo in doubt) [Compound 8, 2-[2-((2S,3R,4S,5R)-5-(2,4-Dioxo-3,4-dihydropyrimidin-1(2H)-yl)-3,4-dihydroxy-tetrahydrofurane-2-carboxamido)ethaneamido]ethylphosphonic acid diethylester], in assay [1], the inhibition at 100 µM came out at 9 ± 13%. Besides, the inhibition at 1000 µM in assay [2] worked out at 0%; in assay [4] it was 22%; in assay [5] (human NTPDase8, ATP 320 μM), 0%. The Ki in assay [2] was > 50 µM; in assay [4], > 200 µM; in assay [5] it was > 100 µM; in assay [6] it was 116 ± 24 µM. Also, the inhibition at 10 µM in assay [3] amounted to 2 ± 3%.
Consider `CCOP(=O)(CNC(=O)CCNC(=O)[C@H]1O[C@@H](n2ccc(=O)[nH]c2=O)[C@H](O)[C@@H]1O)OCC` [Compound 6, 3-[(2S,3R,4S,5R)-5-(2,4-Dioxo-3,4-dihydropyrimidin-1(2H)-yl)-3,4-dihydroxy-tetrahydrofurane-2-carboxamido]pronaneamidomethylphosphonic acid diethylester], for which the inhibition at 100 µM in assay [1] was -3 ± 2%. Moreover, the inhibition at 1000 µM was 0% in assay [2]; 0% in assay [4]; 0% in assay [5] (human NTPDase8, ATP 320 μM). The Ki in assay [2] was > 50 µM; in assay [4], > 200 µM; in assay [5], > 100 µM; in assay [6] it was 167 ± 21 µM. The inhibition at 10 µM in assay [3] was found to be 7 ± 5%.

For the origin of these results see patent US20100204182A1, “ECTONUCLEOTIDASE INHIBITORS” (RHEINISCHE FRIEDRICH-WILHELMS-UNIVERSITAT BONN, priority 2006, published 2010).
